The values that follow come from patent EP0102564A2, “Method for the removal of toxins bound to protein or lipid from blood or blood fractions, and use of certain compounds as liberating agents” (FRAUNHOFER-GESELLSCHAFT ZUR FÖRDERUNG DER ANGEWANDTEN …, priority 1982, dated 1984).

Data set [1] relates to Ethanthiol, Proteinbindung. Particulars: molar ratio of uncoupler to toxin; toxin Ethanthiol (Methanthiol).
For data set [2], the system named is Plasma. Nature of the data set: Removal of protein-bound ET from plasma. Particulars: for Restkonzentration an ET nach Adsorption an AK mit vorheriger Freisetzung durch Entkoppler: 30 mg AK, 45 min, relative to initial value.
For data set [3], the target named is T1, BSA (Bos taurus, UniProt P02769). Nature of the data set: Adsorption of ET on activated carbon after prior release by uncoupler, BSA, batch. Also noted: species or system Rind. The settings on record: for adsorbierte Menge nach 45 Minuten: uncoupler pre-adsorbed on SCII, then 30 mg AK. As for the experimental part:
In dieser Versuchsreihe wurde das Zusammenwirken aller bisher betrachteten Parameter im Batch erprobt. 1 ml ET-Lösung (2170/umol ET/1 PBS) wurden für ca. 18 Stunden bei 37°C mit 40 mg BSA inkubiert. Nach dieser Zeit beträgt die ET-Konzentration lediglich 5% des Ausgangswerts (d.h. 95% des ET sind an das BSA gebunden). Nun erfolgte die Zugabe von 150/ul Entkoppler (K-Cystein = 115, Fig. 7, Kurve a; K-Glutathion = 30, Fig. 8, Kurve a). Die Abkopplung des ET wird verfolgt, bis keine Zunahme der ET-Konzentration mehr eintritt. Bei der Verwendung von Cystein erfolgt die Freisetzung schneller als bei Glutathion.
Nun wurden 30 mg SCII (vorher in PBS entgast) zu den Proben hinzugegeben. Die ET-Konzentration nimmt nun rasch ab. Die gesamte Restmenge beträgt nach 45 Minuten nur noch ca. 5% des Anfangswerts. Es wurden also 95% der vorgegebenen Thiolmenge von 30 mg AK entfernt.
In einer weiteren Versuchsreihe wurde untersucht, ob der Entkoppler auch wirksam ist, wenn er zuvor an Aktivkohle adsorbiert wurde. Dazu wurden 30 mg SCII mit den Entkoppler-Lösungen 2 Stunden inkubiert. Diese vorbeladene Kohle wurde dann statt der Entkoppler-Lösung eingesetzt. Fig. 7 und 8 (jeweils Kurve b) zeigen den Abkopplungsvorgang. Die freie ET-Konzentration steigt in beiden Fällen nicht auf den Anfangswert an. Dem Freisetzungsprozeß ist eine Adsorption überlagert. Sie liegt bei AK-Glutathion um ca. 50% tiefer als bei AK-Cystein. Nach Zugabe von 30 mg AK (in PBS entgast) fällt die ET-Konzentration schnell ab. Nach 45 Minuten beträgt die adsorbierte Menge bei Verwendung von Cystein ca. 97%, bei Verwendung von Glutathion ca. 95%.

For data set [4], the target named is T1, BSA. Nature of the data set: Adsorption of protein-bound ET on activated carbon without prior release, BSA. More on the design: species or system Rind. The settings on record: K = 110, added after removal of carbon; BSA and HSA samples. As for the experimental part: (§1) Um die Leistungsfähigkeit der ET-Entfernung nach vorhergehender Abkopplung von Protein beurteilen zu können, wurde die Adsorptionskinetik ohneverwendung eines Entkopplers untersucht. Dazu wurden im Batchversuch Proben, die 40 mg BSA oder HSA auf 1 ml ET-Lösung (2170/umol ET/ 1 PBS) enthielten, über Nacht auf einem Rollermixer inkubiert. Nach Einstellen des Gleichgewichts wurde am nächsten Tag die Konzentration an ET bestimmt. Sie lag für BSA bei ca. 11% und für HSA bei ca. 21% der Ausgangskonzentration. Zu beiden Proben wurden 30 mg SCII (vorher in PBS entgast) zugegeben und die freie ET-Konzentration fortlaufend gemessen. Nach 45 Minuten wurden die AK entfernt und Cystein zugegeben. […] Fig. 6 zeigt den Verlauf der ET-Konzentration. Die Probe, die HSA enthielt, wies eine Abnahme der ET-Menge durch Adsorption von 78% auf, die Probe mit BSA lediglich von ca. 68%. Dieses Ergebnis deckt sich mit der Beobachtung,daß ET stärker an BSA gebunden ist als an HSA. Damit konnte gezeigt werden, daß proteingebundenes ET durch Aktivkohle entfernt werden kann. Die Restkonzentration liegt jedoch relativ hoch, und die Kinetik ist langsam.

Data set [5] concerns the target T2, Ethanthiol-Protein-Komplex (BSA) (Bos taurus, UniProt P02769).
T2 construct: Rinderserumalbumin (BSA, bovine serum albumin); purchased Behring, Marburg
Nature of the data set: Variation of the uncoupler amount, release of ET from BSA. The settings on record: compared with reduced Glutathion. Also noted: species or system Rind. As for the experimental part: Um die Wirksamkeit der beiden Entkoppler vergleichen zu können, wurden Proben mit 40 mg BSA auf 1 ml ET-Lösung (2170/umol ET/1 PBS) über Nacht bei 37 °C inkubiert. Nach dieser Zeit betrug die freie Thiolkonzentration ca. 2 bis 5% der Ausgangskonzentration. Nach der Zugabe unterschiedlicher Entkoppler-Mengen wurde die Freisetzung des ET gaschromatographisch verfolgt. Fig. 3 und 4 zeigen den Verlauf der ET-Konzentration als Funktion der Zeit. Die Zugabe des Entkopplers erfolgte zum Zeitpunkt t = o. Der Parameter K entspricht dem molaren Verhältnis zwischen eingesetzter Entkoppler-Menge und eingesetzter ET-Thiolmenge.

Data set [6] has as its target T3, HSA (Homo sapiens, UniProt P02768).
T3 construct: Humanserumalbumin (HSA); purchased Behring, Marburg or Sigma, St. Louis (fatty-acid-free)
As to the kind of experiment: Binding study of toxins to protein, ultrafiltration and photometry, HSA. The format is in vitro ADME. The settings on record: HSA 80 mg in 2 ml PBS, depends on initial concentration, read-out: MTX in ungebundener Form. As for the experimental part: Es wurden beide Verfahren der Druckerzeugung (Druckluft, Zentrifugation) erprobt. Dazu wurden die Proben (2 ml) in die Trennzelle gefüllt und ein Teil (150fu1) abgetrennt. Durch diesen kleinen Probenverlust wird das Gleichgewicht der Probe nur schwach gestört. Die Konzentrationen der einzelnen Substanzen (Toxin und Protein) wurden photometrisch mit einem Mehrkomponentenanalyseprogramm ermittelt. Beide Meßverfahren führten zu den gleichen Ergebnissen. Bevorzugt ist das Verfahren der Ultrafiltration mit Hilfe der Zentrifugation. Dieses Verfahren erlaubt einen höheren Probendurchsatz als das Verfahren mit Druckluft. Die verwendeten Proteinkonzentrationen waren physiologisch (Albumin 40 g/l; Fibrinogen 4 g/l). Aus den bekannten Anfangskonzentrationen und der gemessenen Konzentration an freiem ungebundenen Toxin lassen sich die Bindungsparameter sowie die Adsorptionsisothermen punktweise ermitteln.
Das freie ungebundene Toxin wurde durch Ultrafiltration gewonnen und die Konzentration photometrisch mit Hilfe der Mehrkomponentenanalyse bestimmt. Die Ausgangsproben enthielten 80 mg Protein und wurden mit PBS auf 2 ml aufgefüllt (physiologische Konzentration). Die Toxinmenge wurde zwischen 100 und 1GOO/ug variiert. Es zeigten sich deutliche Unterschiede zwischen BSA und HSA.

The target of data set [7] is T1, BSA. As to the kind of experiment: Binding study of toxins to protein, ultrafiltration and photometry, BSA. Particulars: bovine, bsa in pbs.
Data set [8] has as its system Plasmaproteine. The settings on record: plasma; cited from earlier work.
For data set [9], the target named is T1, BSA. As to the kind of experiment: in vitro. The settings on record: bovine.
Data set [10] can be described thus: Removal of protein-bound ET from plasma.
Data set [11] has as its target T1, BSA. Nature of the data set: Binding of Ethanthiol to BSA, gas chromatography (headspace).
Data set [12] addresses T4, Fibrinogen (Bos taurus, UniProt P02672+P02676+P12799).
T4 sequence (P02672 20-615): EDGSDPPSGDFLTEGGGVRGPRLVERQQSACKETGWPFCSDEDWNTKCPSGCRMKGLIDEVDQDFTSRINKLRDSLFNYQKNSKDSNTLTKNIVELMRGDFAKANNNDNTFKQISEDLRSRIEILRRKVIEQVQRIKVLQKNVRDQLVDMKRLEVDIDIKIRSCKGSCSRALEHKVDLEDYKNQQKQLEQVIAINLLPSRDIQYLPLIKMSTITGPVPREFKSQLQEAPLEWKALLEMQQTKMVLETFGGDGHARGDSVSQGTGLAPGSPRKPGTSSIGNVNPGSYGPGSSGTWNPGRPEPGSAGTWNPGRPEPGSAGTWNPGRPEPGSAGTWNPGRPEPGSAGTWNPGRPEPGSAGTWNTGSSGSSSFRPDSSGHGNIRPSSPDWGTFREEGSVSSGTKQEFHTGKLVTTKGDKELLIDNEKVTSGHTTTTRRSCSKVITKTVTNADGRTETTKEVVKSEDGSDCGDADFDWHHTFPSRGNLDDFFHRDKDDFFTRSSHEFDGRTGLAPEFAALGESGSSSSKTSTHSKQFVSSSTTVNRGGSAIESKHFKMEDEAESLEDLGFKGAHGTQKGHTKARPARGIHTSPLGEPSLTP
T4 sequence (P02676 1-468): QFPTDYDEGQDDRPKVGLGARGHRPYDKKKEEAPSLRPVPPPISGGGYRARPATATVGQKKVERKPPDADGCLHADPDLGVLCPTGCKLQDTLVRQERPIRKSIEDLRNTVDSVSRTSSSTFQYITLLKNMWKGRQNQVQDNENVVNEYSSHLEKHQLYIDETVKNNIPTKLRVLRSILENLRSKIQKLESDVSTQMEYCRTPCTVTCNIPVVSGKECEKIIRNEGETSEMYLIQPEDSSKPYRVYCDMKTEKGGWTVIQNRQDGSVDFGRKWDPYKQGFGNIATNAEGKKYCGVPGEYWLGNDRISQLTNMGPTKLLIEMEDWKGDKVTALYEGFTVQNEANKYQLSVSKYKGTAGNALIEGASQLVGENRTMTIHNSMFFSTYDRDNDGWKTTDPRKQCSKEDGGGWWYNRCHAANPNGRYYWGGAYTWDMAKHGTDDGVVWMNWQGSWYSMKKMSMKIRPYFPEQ
T4 sequence (P12799 25-444): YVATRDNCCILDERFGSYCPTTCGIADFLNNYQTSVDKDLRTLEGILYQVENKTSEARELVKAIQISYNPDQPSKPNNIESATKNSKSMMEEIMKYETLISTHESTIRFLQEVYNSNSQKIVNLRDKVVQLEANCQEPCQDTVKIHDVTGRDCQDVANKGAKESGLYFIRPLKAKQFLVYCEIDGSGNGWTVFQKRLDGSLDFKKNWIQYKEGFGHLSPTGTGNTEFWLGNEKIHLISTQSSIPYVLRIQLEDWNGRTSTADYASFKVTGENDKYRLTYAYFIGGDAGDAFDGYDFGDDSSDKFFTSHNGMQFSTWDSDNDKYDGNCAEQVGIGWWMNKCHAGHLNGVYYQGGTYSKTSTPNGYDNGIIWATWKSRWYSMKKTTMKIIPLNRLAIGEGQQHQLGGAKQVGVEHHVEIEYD

For data set [13], the target named is T3, HSA. Nature of the data set: Binding of Ethanthiol to HSA, gas chromatography (headspace). The settings on record: 40 mg HSA per 1 ml ET solution, overnight, equilibrium. The class given is in vitro ADME. As for the experimental part: as §1
The target in data set [14] is T1, BSA. As to the kind of experiment: Competitive adsorption of fatty acids and Ethanthiol on BSA. More on the design: species or system Rind. The settings on record: rising oleic acid concentration. An excerpt:
Aus der Literatur ist bekannt, daß Fettsäuren eine starke Proteinbindung aufweisen. Proben, die Thiol und ölsäure (einfach ungesättigte Fettsäure) enthielten, zeigten abnehmende Thioladsorption bei steigender ölsäurekonzentration.

Where only a bound is given, the exact number is not on record here.

T1 sequence (P02769 25-607): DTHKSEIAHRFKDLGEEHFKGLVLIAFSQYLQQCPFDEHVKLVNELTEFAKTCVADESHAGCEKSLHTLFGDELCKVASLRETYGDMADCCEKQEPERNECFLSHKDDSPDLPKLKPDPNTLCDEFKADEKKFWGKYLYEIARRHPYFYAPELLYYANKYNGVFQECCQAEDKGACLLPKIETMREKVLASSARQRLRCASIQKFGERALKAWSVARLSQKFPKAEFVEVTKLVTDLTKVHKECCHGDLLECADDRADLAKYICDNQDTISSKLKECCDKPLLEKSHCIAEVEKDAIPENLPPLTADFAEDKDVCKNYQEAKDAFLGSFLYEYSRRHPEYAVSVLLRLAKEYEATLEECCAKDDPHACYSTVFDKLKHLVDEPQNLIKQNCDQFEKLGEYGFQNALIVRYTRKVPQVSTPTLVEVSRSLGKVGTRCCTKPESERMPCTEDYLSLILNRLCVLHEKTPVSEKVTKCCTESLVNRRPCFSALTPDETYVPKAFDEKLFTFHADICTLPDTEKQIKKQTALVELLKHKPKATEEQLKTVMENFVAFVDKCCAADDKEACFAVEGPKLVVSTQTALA
T3 sequence (P02768 25-609 limits assumed): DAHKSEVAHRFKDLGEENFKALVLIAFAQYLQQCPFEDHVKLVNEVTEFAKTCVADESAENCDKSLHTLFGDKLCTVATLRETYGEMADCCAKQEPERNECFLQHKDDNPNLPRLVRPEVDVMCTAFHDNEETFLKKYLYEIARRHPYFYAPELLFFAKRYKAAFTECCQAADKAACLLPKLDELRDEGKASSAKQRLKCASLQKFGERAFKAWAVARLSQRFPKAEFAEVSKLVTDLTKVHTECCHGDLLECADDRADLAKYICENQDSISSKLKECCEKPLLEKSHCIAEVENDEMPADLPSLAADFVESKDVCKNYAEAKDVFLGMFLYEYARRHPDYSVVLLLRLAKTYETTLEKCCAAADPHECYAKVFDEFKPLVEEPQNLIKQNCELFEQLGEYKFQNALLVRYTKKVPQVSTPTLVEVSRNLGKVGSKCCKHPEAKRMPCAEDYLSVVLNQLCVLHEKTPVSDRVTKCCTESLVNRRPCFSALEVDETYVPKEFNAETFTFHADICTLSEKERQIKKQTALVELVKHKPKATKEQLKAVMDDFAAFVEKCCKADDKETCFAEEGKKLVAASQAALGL
T2 sequence (P02769 25-607): as the sequence (P02769 25-607) above

Take `N[C@@H](CCC(=O)N[C@@H](CS)C(=O)NCC(=O)O)C(=O)O` [Glutathion, red., Glutathion, reduziert]: the K-Werte result in data set [1] is “ca. 100”. In addition, the Entkopplung entry in [2] (ET rises again after final addition of Cystein) is “keine 100%ige Entkopplung”. Further, the “Restkonzentration an ET nach Adsorption an AK mit vorheriger Freisetzung durch Entkoppler” value in data set [2] (uncoupler added directly) came out at 15%; in [2] (uncoupler pre-adsorbed on AK), 16%. The “adsorbierte Menge nach 45 Minuten” value in data set [3] is on record as “ca. 95%”.
`N[C@@H](CS)C(=O)O` [Cystein]: the “Freisetzung, Geschwindigkeit im Vergleich zu Glutathion” value in data set [2] is on record as “schnellere Freisetzung”; in [3] (K-Cystein = 115, K-Glutathion = 30), “schneller”. For the same compound, the “Restkonzentration an ET nach Adsorption an AK mit vorheriger Freisetzung durch Entkoppler” value in [2] (uncoupler added directly) is listed as 15%; in [2] (uncoupler pre-adsorbed on AK), 4%. For the same compound, the “Freisetzung des noch vorhandenen Ethanthiols” value in data set [4] is listed as “totale Freisetzung”. Besides, the “adsorbierte Menge nach 45 Minuten” value in [3] is on record as “ca. 97%”. Also, the “K-Werte für den gleichen Freisetzungsgrad an ET” value in [5] was “höher”.
Consider `CN(Cc1cnc2nc(N)nc(N)c2n1)c1ccc(C(=O)N[C@@H](CCC(=O)O)C(=O)O)cc1` [Methotrexat], for which the fraction unbound in data set [6] was in the range of 0.3 to 0.4; in [7], 0.1 to 0.25. Also, the “Bindung von Pharmaka an Plasmaproteine” value in [8] is recorded as 80%.
Regarding `CCS` [Ethanthiol], the fraction unbound at 18 h, 2170 µM in [9] (ET-Konzentration, % des Ausgangswerts) worked out at 0.05. Moreover, the fraction unbound in [9] (Ethanthiol an BSA gebunden) was roughly 0.05; in data set [9] (Konzentration an ET, % der Ausgangskonzentration), roughly 0.11; in [9] (freie Thiolkonzentration, % der Ausgangskonzentration), 0.02 to 0.05. This compound also showed a fraction unbound at 20 h, 2170 µM in [10] of 0.33. Also, in data set [11], the “Adsorption des Ethanthiols an BSA bis zur Nachweisgrenze dauert” value is on record as no more than 6 Stunden. The “Zeit, nach der 50% der ET-Menge gebunden sind” value in data set [11] (40 mg BSA, 1 ml ET solution 2170 µmol/l, 37°C) is recorded as “ca. 3 Stunden”. Besides, in data set [12], the “von Fibrinogen gebundene molare Menge von Toxin im Vergleich zu Albumin” value is “annähernd die gleiche molare Menge”. In addition, the “Konzentration an ET, % der Ausgangskonzentration” value in data set [13] is reported as “ca. 21%”.
With `CCCCCCCC/C=C\CCCCCCCC(=O)O` [ölsäure], the “Bindung von Ethanthiol an BSA durch Zugabe von ölsäure” value in data set [14] is on record as “behindert oder gar blockiert”.
